Experimental data published in patent US10960020B2, “Modulation of PCSK9 and LDLR through DRP1 inhibition” (THE BRIGHAM AND WOMEN'S HOSPITAL, INC., priority 2016, dated 2021).

Columns and labels:
cellular PCSK9 protein [1] = test: Western blot, HepG2 cellular PCSK9 protein; type: cell-based, human; settings: HepG2, Mdivi-1 50 μM, 24 hours
DRP1 protein = test: Western blot, HepG2 DRP1 protein; type: cell-based, human; settings: HepG2, Mdivi-1 50 μM, 24 hours
hepatocyte cytoskeleton = test: Cytoskeleton gene panel and actin/microtubule confocal immunofluorescence; type: cell-based; settings: HepG2 and primary human hepatocytes, Mdivi-1 50 μM, 24 hours
Experimental: Filamentous actin was stained using CytoPainter Phallodin iFluor 555 Reagent (2 μl phalloidin in 2000 μl PBS with 1% BSA; Abcam), with a 60 minute incubation at room temperature. Slides were incubated with anti-alpha tubulin (1:200, Abcam, ab15246), PDI (1:100; 3501, Cell Signaling Technology), and anti-mitochondria (ab92824, Abcam) for 2 hours at room temperature or overnight at 4° C., followed by incubation with Alexa Fluor 488-labelled secondary antibody (1:200, Thermo Fisher Scientific). Nuclear staining was performed with DAPI (Thermo Fisher Scientific). Prior to visualization 200 μL PBS was added to each well. Liver tissue and cells were examined using a confocal microscope Al (Nikon Instruments Inc., Melville, N.Y.), and all images were processed with Elements 3.20 software (Nikon Instruments Inc.). Human cells and mouse liver was homogenized with TriZolTM (Life Technologies, Grand Island, N.Y.) to isolate RNA. […]

SREBP-1c mRNA = test: Real time PCR, HepG2 SREBP-1c mRNA; type: cell-based, human; settings: HepG2, Mdivi-1 50 μM, 24 hours
Text: Human cells and mouse liver was homogenized with TriZolTM (Life Technologies, Grand Island, N.Y.) to isolate RNA. QuantiTectTM Reverse Transcription Kit (Qiagen, Hilden, Germany) was used for reverse transcription on total RNA. cDNA was generated using the Quanta gScriptTM cDNA Synthesis Kit (Bioscience Inc., Gaithersburg, Md.). mRNA levels were quantified on a 7900HT real-time PCR system (Thermo Fisher Scientific) using TaqManTM real-time PCR with the following probes: Hs02758991_g1 (human GAPDH); Mm99999915_g1 (mouse Gapdh); Hs00236329 m1 (human BCL2L1); Hs00247147_m1 (human DRP1); Hs00545399_m1 (human PCSK9); Mm01263610_m1 (mouse Pcsk9); Hs00168352_m1 (human HMGCR); […]); Hs00181192_m1 (human LDLR); Mm00440169_m1 (mouse Ldlr); Hs01088691_m1 (human SREBP1); Mm00550338_m1 (mouse Srebp1); Hs00231674_m1 (human SREBP1a); custom primer (human SREBP1c); Hs01081784_m1 (human SREBP2); Mm01306292_m1 (mouse Srebp2); Hs01005622_m1 (human FASN); […]); Hs00167041_m1 (human HNF1A); Mm00493434_m1 (mouse Hnf1a); Hs00171168 (human APOE); Hs01059118_m1 (human ABCA1); Hs01103582_s1 (human JUN). Mouse SREBP-1c was analyzed by SYBERTM green PCR with the following primers: [NT] All expression levels were normalized to GAPDH using the ΔΔCT method.

cellular PCSK9 protein [2] = test: Western blot, primary human hepatocyte cellular PCSK9 protein; type: cell-based; settings: primary human hepatocytes, Mdivi-1 50 μM, 24 hours
HMGCR = test: Western blot, HepG2 HMGCR protein; type: cell-based, human; settings: HepG2, Mdivi-1 50 μM, 24 hours

COc1cc(-n2c(S)nc3ccccc3c2=O)c(Cl)cc1Cl [Mdivi-1, 3-(2,4-Dichloro-5-methoxyphenyl)-2,3-dihydro-2-thioxo-4(1H)-quinazolinone]
Cellular PCSK9 protein abundance (cellular PCSK9 protein [1]): reduced | DRP1 protein content (DRP1 protein): without altering | hepatocyte cytoskeleton (hepatocyte cytoskeleton): did not alter | SREBP-1c mRNA (SREBP-1c mRNA): strongly reduced | cellular PCSK9 protein (cellular PCSK9 protein [2]): without altering | HMGCR abundance increase (HMGCR): not
